The target of this experiment is T1, human CXCR3 (N-delta 4) (Homo sapiens, UniProt P49682).
T1 construct: CD8 leader; Flag tag; expressed in transfected cells; membranes used
T1 sequence (P49682 5-368 limits assumed): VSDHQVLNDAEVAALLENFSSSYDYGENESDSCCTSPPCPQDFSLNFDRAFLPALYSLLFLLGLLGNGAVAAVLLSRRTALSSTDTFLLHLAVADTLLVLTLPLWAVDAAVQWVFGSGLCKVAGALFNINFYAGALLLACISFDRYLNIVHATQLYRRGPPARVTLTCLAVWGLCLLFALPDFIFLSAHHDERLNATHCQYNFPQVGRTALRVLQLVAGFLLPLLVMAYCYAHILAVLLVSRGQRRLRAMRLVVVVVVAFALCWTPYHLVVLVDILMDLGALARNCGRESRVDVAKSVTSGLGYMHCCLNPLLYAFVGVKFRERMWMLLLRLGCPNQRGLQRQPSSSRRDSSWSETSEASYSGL
In words: Human CXCR3 (N-delta 4) scintillation proximity assay (SPA), [125I] IP-10 binding. Particulars: IC50 rating; Ba/F3-hCXCR3 (N-delta 4) membranes, 25 pM [125I] IP-10. An excerpt:
The inventive compounds can readily be evaluated to determine activity at the CXCR3 receptors by known methods, such as, for example, development of a human CXCR3 (N-delta 4) Binding Assay.
Cloning and expression of human CXCR3 (N-delta 4):
The DNA encoding human CXCR3 was cloned by PCR using human genomic DNA (Promega, Madison, Wis.) as a template. The PCR primers were designed based on the published sequence of human orphan receptor GPR9 (1) with incorporated restriction sites, a Kozak consensus sequence, CD8 leader and Flag tag. The PCR product was subcloned into the mammalian expression vector pME18Sneo, a derivative of the SR-alpha expression vector (designated as pME18Sneo-hCXCR3 (N-delta 4).
IL-3-dependent mouse pro-B cells Ba/F3 were transfected by electroporation in 0.4 ml Dulbecco's PBS containing 4×10^6 cells with 20 μg of pME18Sneo-hCXCR3 (N-delta 4) plasmid DNA. Cells were pulsed at 400 Volts, 100 OHMs, 960 μFd. The transfected cells were under selection with 1 mg/ml G418 (Life Technologies, Gaithersburg, Md.). […] IP-10 (NEN Life Science Products, Boston, Mass.).
Preparation of Ba/F3-hCXCR3 (N-delta 4) membranes:
Ba/F3 cells expressing human CXCR3 (N-delta 4) were pelleted and resuspended in the lysis buffer containing 10 mM HEPES, pH 7.5 and Complete® protease inhibitors (1 tablet per 100 ml) (Boehringer Mannheim, Indianapolis, Ind.) at a cell density of 20×10^6 cells per ml. […] Large cellular debris was removed by centrifugation at 1,000×g. Cell membrane in the supernatant was sedimented at 100,000×g. The membrane was resuspended in the lysis buffer supplemented with 10% sucrose and stored at −80° C. Total protein concentration of the membrane was determined by BCA method from Pierce (Rockford, Ill.).
Human CXCR3 (N-delta 4) scintillation proximity assay (SPA):
The beads were spun down, washed once, resuspended in the binding buffer and transferred to a 96-well Isoplate (Wallac, Gaithersburg, Md.). […] IP-10 with tested compounds in a series of titration were added to start the reaction.
(In general: In a scintillation proximity assay essentially only radioactivity close to the scintillant gives light.)

By IC50 is commonly meant the concentration that inhibits the measured activity by half. `CCOC(CNC(=O)c1cnc(N2CCN(C3CCN(Cc4ccc(Cl)cc4)CC3)[C@@H](C)C2)c(Cl)c1)OCC` [compound 340] registered an IC50 of more than 100 nM.

In turn, `C[C@@H]1CN(c2ncc(C(=O)NCC3CCCCC3)cc2Cl)CCN1C1CCN(Cc2ccc(C#N)cc2)CC1` [compound 235] gave an IC50 of less than 25 nM.

The molecule `O=C(NCc1ccccc1Cl)c1cnc(N2CCN(C3CCN(Cc4ccc(Cl)cc4)CC3)CC2)c(Cl)c1` [compound 166] returned a half-inhibitory concentration (IC50) of more than 100 nM.

`COc1ccc(CN2CCC(N3CCN(c4ncc(C(=O)NCc5ccc(C(F)(F)F)cc5)cc4Br)CC3)CC2)cc1` [compound 322]: the IC50 lay in the range of 25 to 100 nM.

In the case of `COc1ccc(CN2CCC(N3CCN(c4ncc(C(=O)NCCOc5ccccc5)cc4Br)CC3)CC2)cc1` [compound 304], the concentration for half-maximal inhibition (IC50) lay in the range of 25 to 100 nM.

`O=C(NCc1ccccc1)c1cnc(N2CCN(C3CCN(Cc4ccc(F)c(F)c4)CC3)CC2)c(Cl)c1` [compound 53] came in with an IC50 of more than 100 nM.

Turning to `O=C(NCc1ccc(Cl)cc1)c1cnc(N2CCN(C3CCN(Cc4ccc([N+](=O)[O-])cc4)CC3)CC2)c(Cl)c1` [compound 153], the IC50 is 25 to 100 nM.

As for `O=C(NC1CCc2ccccc21)c1cnc(N2CCN(C3CCN(Cc4ccc(Cl)cc4)CC3)CC2)c(Br)c1` (stereo not drawn) [compound 3], the concentration for half-maximal inhibition (IC50) is more than 100 nM.

Molecule `C[C@@H]1CN(C2CCN(Cc3ccc([N+](=O)[O-])cc3)CC2)CCN1c1ncc(C(=O)NCc2ccc(Cl)c(Cl)c2)cc1Cl` [compound 174] yielded an IC50 of 25 to 100 nM.

`O=C(NCc1ccc(F)cc1)c1cnc(N2CCN(C3CCN(Cc4ccc(Br)cc4F)CC3)CC2)c(Cl)c1` [compound 4] displayed an IC50 of more than 100 nM.

Molecule `O=C(NCc1ccc(F)cc1)c1cnc(N2CCN(C3CCN(Cc4ccc(Cl)cc4Cl)CC3)CC2)c(Cl)c1` [compound 7] displayed a 50% inhibitory concentration (IC50) of more than 100 nM.

`CC[C@H]1CN(c2ncc(CN/C(N)=N\C#N)cc2Cl)CCN1C1CCN(Cc2ccc(Cl)cc2F)CC1` [compound 389] came in with an IC50 of less than 25 nM.

`O=C(NCc1ccc(Cl)cc1F)c1cnc(N2CCN(C3CCN(Cc4ccc(F)c(F)c4)CC3)CC2)c(Cl)c1` [compound 140] registered an IC50 of 25 to 100 nM.

With `CC[C@H]1CN(c2ncc(CNC(=O)Nc3c(C)noc3C)cc2Cl)CCN1C1CCN(Cc2ccc(Cl)cc2F)CC1` [compound 417], the half-maximal inhibitory concentration (IC50) was 25 to 100 nM.

`O=C(NCC1COc2ccccc2O1)c1cnc(N2CCN(C3CCN(Cc4ccc(Cl)cc4)CC3)CC2)c(Br)c1` (stereo not drawn) [compound 176] showed an IC50 of more than 100 nM.

In the case of `CC1(C)C2CCC(CNC(=O)c3cnc(N4CCN(C5CCN(Cc6ccc(Cl)cc6)CC5)CC4)c(Br)c3)C1C2` (stereo not drawn) [compound 9], the IC50 was more than 100 nM.

Consider `CNC(=O)c1cnc(N2CCN(C3CCN(Cc4c(F)cccc4F)CC3)[C@@H](C)C2)c(Cl)c1` [compound 366], for which the IC50 was more than 100 nM.

Regarding `CC[C@H]1CN(c2ncc(CNC(=O)NC3CC3)cc2Cl)CCN1C1CCN(Cc2ccc(Br)cc2F)CC1` [compound 367], the 50% inhibitory concentration (IC50) is less than 25 nM.

As to `CC[C@H]1CN(c2ncc(C(=O)OC)cc2Cl)CCN1C1CCN(Cc2ccc(Br)cc2F)CC1` [compound 435], the IC50 was more than 100 nM.

`O=C(NCc1ccc(Br)cc1)c1cnc(N2CCN(C3CCN(Cc4ccc(Cl)cc4)CC3)CC2)c(Cl)c1` [compound 136] had an IC50 of 25 to 100 nM.

In turn, `CC[C@H]1CN(c2ncc(CNS(C)(=O)=O)cc2Cl)CCN1C1CCN(Cc2ccc(Br)cc2F)CC1` [compound 378] showed an IC50 of less than 25 nM.

Molecule `CNC(=O)c1cnc(N2CCN(C3CCN(Cc4ccc(Cl)nc4)CC3)[C@@H](C)C2)c(Cl)c1` [compound 333] returned a concentration for half-maximal inhibition (IC50) of more than 100 nM.

`CC[C@H]1CN(c2ncc(CNC(=O)NCC(F)(F)F)cc2Cl)CCN1C1CCN(Cc2ccc(Br)cc2F)CC1` [compound 371] had a 50% inhibitory concentration (IC50) of less than 25 nM.

With `CC[C@H]1CN(c2ncc(C(C)OC(C)=O)cc2Cl)CCN1C1CCN(Cc2ccc(Cl)cc2F)CC1` (stereo partly drawn) [compound 451], the IC50 was more than 100 nM.

As for `N#Cc1ccc(C(=O)N2CCC(N3CCN(c4ncc(C(=O)NCc5ccc(Cl)c(Cl)c5)cc4Br)CC3)CC2)cc1` [compound 285], the IC50 was 25 to 100 nM.

Turning to `CCNC(=O)c1cnc(N2CCN(C3CCN([C@@H](CC)c4ccc(Cl)cc4)CC3)[C@@H](C)C2)c(Cl)c1` [compound 344], the IC50 is more than 100 nM.

As for `CC[C@H]1CN(c2ncc(CN)cc2Cl)CCN1C1CCN(Cc2ccc(Br)cc2F)CC1` [compound 421], the IC50 is 25 to 100 nM.

In turn, `O=C(NCc1ccc(F)c(F)c1)c1cnc(N2CCN(C3CCN(Cc4ccc([N+](=O)[O-])cc4)CC3)CC2)c(Br)c1` [compound 164] came in with an IC50 of less than 25 nM.

In turn, `COc1ccc(CN2CCC(N3CCN(c4ncc(C(=O)NCCOc5ccccc5)cc4Cl)CC3)CC2)cc1` [compound 331] had a half-maximal inhibitory concentration (IC50) of more than 100 nM.

Turning to `O=C(NCc1ccc(F)c(Cl)c1)c1cnc(N2CCN(C3CCN(Cc4ccc([N+](=O)[O-])cc4)CC3)CC2)c(Cl)c1` [compound 158], the IC50 lay in the range of 25 to 100 nM.

In the case of `C[C@@H](NC(=O)c1cnc(N2CCN(C3CCN(Cc4ccc(Cl)cc4)CC3)[C@@H](C)C2)c(Cl)c1)C1CCCCC1` [compound 247], the concentration for half-maximal inhibition (IC50) is less than 25 nM.

For `CC1(N2CCN(c3ncc(C(=O)NCc4ccc(F)c(F)c4)cc3Cl)CC2)CCN(Cc2ccc(Cl)cc2)CC1` [compound 207], the IC50 is more than 100 nM.

Consider `O=C(NCc1ccc(Br)cc1)c1cnc(N2CCN(C3CCN(Cc4ccc(Br)cc4)CC3)CC2)c(Cl)c1` [compound 308], for which the 50% inhibitory concentration (IC50) lay in the range of 25 to 100 nM.

On to `O=C(NCc1ccc(Cl)cc1F)c1cnc(N2CCN(C3CCN(Cc4ccc([N+](=O)[O-])cc4)CC3)CC2)c(Cl)c1` [compound 155], for which the IC50 fell in the range of 25 to 100 nM.

In the case of `C[C@H]1CN(c2ncc(C(=O)NCc3ccc(F)c(F)c3)cc2Cl)CCN1C1CCN(C(=O)c2ccc(C#N)cc2)CC1` [compound 291], the IC50 was in the range of 25 to 100 nM.

Molecule `O=C(NCc1cccc(Cl)c1)c1cnc(N2CCN(C3CCN(Cc4ccc(F)c(F)c4)CC3)CC2)c(Cl)c1` [compound 118] came in with a 50% inhibitory concentration (IC50) of 25 to 100 nM.

As for `CNC(=O)c1cnc(N2CCN(C3CCN(Cc4ccc(F)cc4S(=O)(=O)N(C)c4ccc(Cl)cc4)CC3)[C@@H](C)C2)c(Cl)c1` [compound 354], the 50% inhibitory concentration (IC50) was more than 100 nM.

As for `CC[C@H]1CN(c2ncc(COC(=O)Nc3c(C)noc3C)cc2Cl)CCN1C1CCN(Cc2ccc(Cl)cc2F)CC1` [compound 402], the 50% inhibitory concentration (IC50) was less than 25 nM.

Molecule `COC(=O)c1ccc(N2C[C@H](C)N(C3CCN(Cc4ccc(Cl)cc4F)CC3)C[C@H]2C)nc1` [compound 456] gave an IC50 of more than 100 nM.

In turn, `O=C(NCc1cccc(F)c1)c1cnc(N2CCN(C3CCN(Cc4ccc(Br)cc4F)CC3)CC2)c(Cl)c1` [compound 14] yielded an IC50 of more than 100 nM.

As to `CNC(=O)c1cnc(N2C[C@H](C)N(C3CCN(Cc4ccc(Cl)cc4F)CC3)C[C@H]2C)c(Cl)c1` [compound 352], the IC50 is more than 100 nM.

Take `N#Cc1ccc(CN2CCC(N3CCN(c4ncc(C(=O)NCc5ccc(Cl)cc5Cl)cc4Cl)CC3)CC2)cc1` [compound 69]: the IC50 is more than 100 nM.

`COc1ccc(CNC(=O)c2cnc(N3CCN(C4CCN(Cc5ccc(C#N)cc5)CC4)CC3)c(Cl)c2)cc1` [compound 345] yielded an IC50 of more than 100 nM.

Regarding `CC[C@H]1CN(c2ncc(CNC(=O)NCC(F)(F)F)cc2Cl)CCN1C1CCN(Cc2ccc(Cl)cc2F)CC1` [compound 369], the half-inhibitory concentration (IC50) was less than 25 nM.

`CC[C@H]1CN(c2ncc(C(=O)NC3CC3)cc2Cl)CCN1C1CCN(Cc2ccc(F)cc2C(F)(F)F)CC1` [compound 318] displayed a half-maximal inhibitory concentration (IC50) of 25 to 100 nM.

For the origin of these results see US7776862B2, “Pyridyl and phenyl substituted piperazine-piperidines with CXCR3 antagonist activity” (Schering Corporation, priority 2005, dated 2010).
